# Results reported in US4740233A, “Substituted 1,2,4-triazolo[1,5-a]-pyrimidine-2-sulfonamides and compositions and methods of controlling undesired vegetation and suppressing the nitrification of ammonium nitrogen in soil” (The Dow Chemical Company, priority 1986, dated 1988).
# Assays:
# wild oats = assay: Postemergent control of plant species; type: in vivo, Avena fatua; conditions: Avena fatua, post-emergence, 336 h, read-out: percent postemergent control
# Summary of the method: (§1)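 Spray emulsion: acetone stock at twice final concentration plus equal volume water with 0.1% wetting agent, applied to separated greenhouse beds at 2-4 leaf stage. Assessed at ~two weeks; score reflects growth reduction compared with untreated plants.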
# crabgrass = assay: Postemergent control of plant species; type: in vivo, Digitaria spp.; conditions: Digitaria sanguinalis, post-emergence, 336 h, read-out: percent postemergent control
# Summary of the method: as §1
# jimsonweed [1] = assay: Postemergent control of plant species; type: in vivo, Datura stramonium; conditions: Datura stramonium, post-emergence, 336 h, read-out: percent postemergent control
# Summary of the method: as §1
# annual morning glory [2] = assay: Postemergent control of plant species; type: in vivo, Ipomoea spp.; conditions: Ipomoea, post-emergence, 336 h, read-out: percent postemergent control
# Summary of the method: as §1
# velvetleaf [3] = assay: Postemergent control of plant species; type: in vivo, Abutilon theophrasti; conditions: Abutilon theophrasti, post-emergence, 336 h, read-out: percent postemergent control
# Summary of the method: as §1
# [4] = system: annual sugar beet variety (SLC03); assay: Plant growth regulator activity, postemergence; type: in vivo
# Source text: Using a regular biennial variety, even a bolting-susceptible variety would require a cold treatment of around 10-16 weeks plus a hormone treatement in conjunction with specific light intensities. Thus, for a screening organism, we selected one which would consistently produce bolting on a regular schedule. The screen is run with an annual sugar beet variety (SLC03) provided by Dr. Richard J. Hecker, Fort Collins, Colo. This variety is an inbred which bolts in the 6- to 8-leaf stage without any need for vernalization. This allows the screen to be run entirely in the greenhouse with all 110 chemical compounds tested on one tray. The sugarbeets are grown in 3×3 inch square pots in a greenhouse sandy loam potting mix. The sugarbeets are sprayed with test compounds when they are 2 to 3 weeks old (2 true leaves). The compounds are dissolved in acetone and diluted with water containing Tween 20 as a wetting agent. The concentration of acetone in the final spray is 20% and the concentration of Tween 20 is 0.05 percent. The plants are examined for the appearance of a bolt 4 weeks after spraying.
# johnson grass [5] = assay: Postemergent control of plant species; type: in vivo, Sorghum halepense; conditions: Sorghum halepense, post-emergence, 336 h, read-out: percent postemergent control
# Summary of the method: as §1
# cocklebur = assay: Postemergent control of plant species; type: in vivo, Xanthium spp.; conditions: Xanthium strumarium, post-emergence, 336 h, read-out: percent postemergent control
# Summary of the method: as §1
# sorghum [6] = assay: Postemergent control of plant species; type: in vivo, Sorghum vulgare; conditions: Sorghum, post-emergence, 336 h, read-out: percent postemergent control
# Summary of the method: as §1
# pigweed = assay: Postemergent control of plant species; type: in vivo, Amaranthus spp.; conditions: Amaranthus retroflexus, post-emergence, 336 h, read-out: percent postemergent control
# Summary of the method: as §1
# wheat [7] = assay: Postemergent control of plant species; type: in vivo, Triticum aestivum; conditions: Triticum aestivum, post-emergence, 336 h, read-out: percent postemergent control
# Summary of the method: as §1
# rape [8] = assay: Postemergent control of plant species; type: in vivo, Brassica napus; conditions: Brassica napus, post-emergence, 336 h, read-out: percent postemergent control
# Summary of the method: as §1
# sugar beet [9] = assay: Postemergent control of plant species; type: in vivo, Beta saccharifera; conditions: Beta vulgaris, post-emergence, 336 h, read-out: percent postemergent control
# Summary of the method: as §1
# corn [10] = assay: Postemergent control of plant species; type: in vivo, Zea mays; conditions: Zea mays, post-emergence, 336 h, read-out: percent postemergent control
# Summary of the method: as §1
# rice [11] = assay: Postemergent control of plant species; type: in vivo, Oryza sativa; conditions: Oryza sativa, post-emergence, 336 h, read-out: percent postemergent control
# Summary of the method: as §1
# [12] = system: nitrification of ammonium nitrogen; assay: Suppression of nitrification of ammonium nitrogen in soil; conditions: 27° C.
# Summary of the method: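 Value is % NH4-N remaining after a two-week, 27° C incubation of treated soil held at 1/3 bar tension moisture. Nitrate was measured with an ion-selective electrode after extraction with ammonium sulfate solution and 10 min shaking.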
# soybean [13] = assay: Postemergent control of plant species; type: in vivo, Glycine max.; conditions: Glycine max, post-emergence, 336 h, read-out: percent postemergent control
# Summary of the method: as §1
# cotton [14] = assay: Postemergent control of plant species; type: in vivo, Gossypium spp.; conditions: Gossypium hirsutum, post-emergence, 336 h, read-out: percent postemergent control
# Summary of the method: as §1
# barnyardgrass [15] = assay: Postemergent control of plant species; type: in vivo, Echinochloa crusgalli; conditions: Echinochloa crus-galli, post-emergence, 336 h, read-out: percent postemergent control
# Summary of the method: as §1
# yellow nutsedge [16] = assay: Postemergent control of plant species; type: in vivo, Cyperus esculentus; conditions: Cyperus, post-emergence, 336 h, read-out: percent postemergent control
# Summary of the method: as §1
# yellow foxtail [17] = assay: Postemergent control of plant species; type: in vivo, Setaria lutescens; conditions: Setaria, post-emergence, 336 h, read-out: percent postemergent control
# Summary of the method: as §1
# cotton [18] = assay: Preemergent control of plant species; type: in vivo, Gossypium spp.; conditions: Gossypium hirsutum, pre-emergence, 336 h; 0.25 lb/acre; read-out: percent preemergent control
# Summary of the method: (§2)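 Test compositions were applied evenly to the surface of freshly seeded soil beds and kept under greenhouse conditions for two weeks. Percent control reflects growth reduction compared with water-treated beds of the same species.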
# sugar beet [19] = assay: Preemergent control of plant species; type: in vivo, Beta saccharifera; conditions: Beta vulgaris, pre-emergence, 336 h; 0.25 lb/acre; read-out: percent preemergent control
# Summary of the method: as §2
# yellow foxtail [20] = assay: Preemergent control of plant species; type: in vivo, Setaria lutescens; conditions: Setaria, pre-emergence, 336 h; 0.25 lb/acre; read-out: percent preemergent control
# Summary of the method: as §2
# velvetleaf [21] = assay: Preemergent control of plant species; type: in vivo, Abutilon theophrasti; conditions: Abutilon theophrasti, pre-emergence, 336 h; 0.25 lb/acre; read-out: percent preemergent control
# Summary of the method: as §2
# annual morning glory [22] = assay: Preemergent control of plant species; type: in vivo, Ipomoea spp.; conditions: Ipomoea, pre-emergence, 336 h; 0.25 lb/acre; read-out: percent preemergent control
# Summary of the method: as §2
# corn [23] = assay: Preemergent control of plant species; type: in vivo, Zea mays; conditions: Zea mays, pre-emergence, 336 h; 0.25 lb/acre; read-out: percent preemergent control
# Summary of the method: as §2
# jimsonweed [24] = assay: Preemergent control of plant species; type: in vivo, Datura stramonium; conditions: Datura stramonium, pre-emergence, 336 h; 0.25 lb/acre; read-out: percent preemergent control
# Summary of the method: as §2
# rape [25] = assay: Preemergent control of plant species; type: in vivo, Brassica napus; conditions: Brassica napus, pre-emergence, 336 h; 0.25 lb/acre; read-out: percent preemergent control
# Summary of the method: as §2
# johnson grass [26] = assay: Preemergent control of plant species; type: in vivo, Sorghum halepense; conditions: Sorghum halepense, pre-emergence, 336 h; 0.25 lb/acre; read-out: percent preemergent control
# Summary of the method: as §2
# yellow nutsedge [27] = assay: Preemergent control of plant species; type: in vivo, Cyperus esculentus; conditions: Cyperus, pre-emergence, 336 h; 0.25 lb/acre; read-out: percent preemergent control
# Summary of the method: as §2
# barnyardgrass [28] = assay: Preemergent control of plant species; type: in vivo, Echinochloa crusgalli; conditions: Echinochloa crus-galli, pre-emergence, 336 h; 0.25 lb/acre; read-out: percent preemergent control
# Summary of the method: as §2
# corn (First In) = assay: Gametocidal activity in corn, postemergent application; type: in vivo; conditions: sprayed at three leaf stage
# Procedure: The compounds of this invention are also plant gametocides depending on the dosage and timing of application and the species of plant to which the compounds are applied. For example, certain of the compounds were sprayed on corn seedlings at the three leaf stage of growth, and the seedlings were returned to the greenhouse for subsequent growth and observation. The corn variety was "First In". The chemicals were dissolved in acetone, and the acetone solution was diluted with water containing Tween 20 wetting agent such that the final spray solution contained 50% acetone and 0.1% Tween 20 in water. […] Tabulated below are data which illustrate the use of the compounds of this invention as plant gametocides in corn.
# sorghum [29] = assay: Preemergent control of plant species; type: in vivo, Sorghum vulgare; conditions: Sorghum, pre-emergence, 336 h; 0.25 lb/acre; read-out: percent preemergent control
# Summary of the method: as §2
# rice [30] = assay: Preemergent control of plant species; type: in vivo, Oryza sativa; conditions: Oryza sativa, pre-emergence, 336 h; 0.25 lb/acre; read-out: percent preemergent control
# Summary of the method: as §2
# wheat [31] = assay: Preemergent control of plant species; type: in vivo, Triticum aestivum; conditions: Triticum aestivum, pre-emergence, 336 h; 0.25 lb/acre; read-out: percent preemergent control
# Summary of the method: as §2
# soybean [32] = assay: Preemergent control of plant species; type: in vivo, Glycine max.; conditions: Glycine max, pre-emergence, 336 h; 0.25 lb/acre; read-out: percent preemergent control
# Summary of the method: as §2
compound,measurement,setting,value
Cc1cccc(Cl)c1NS(=O)(=O)c1nc2ncc(Cl)cn2n1 [Compound 119],pest or weed control at 500 ppm,wild oats,0%
same,pest or weed control at 500 ppm,crabgrass,0%
same,pest or weed control at 500 ppm,jimsonweed [1],90%
same,pest or weed control at 500 ppm,annual morning glory [2],30%
same,pest or weed control at 500 ppm,velvetleaf [3],70%
same,observed effect (postemergence),[4]; 400 ppm,stunting
same,minimal effective concentration,"[4]; Beta vulgaris, post-emergence, 672 h, 4 weeks after spraying, read-out: Bolting Inhibition (postemergence), concentration with observed effect",400 µg/mL
same,pest or weed control at 500 ppm,johnson grass [5],80%
same,pest or weed control at 500 ppm,cocklebur,70%
same,plant injury at 500 ppm,sorghum [6],0%
same,pest or weed control at 500 ppm,pigweed,0%
same,plant injury at 500 ppm,wheat [7],0%
same,plant injury at 500 ppm,rape [8],100%
same,plant injury at 500 ppm,sugar beet [9],50%
same,plant injury at 500 ppm,corn [10],30%
same,plant injury at 500 ppm,rice [11],0%
same,% NH4-N Remaining After 2 Weeks Incubation,[12]; 0.06 ppm,23%
same,% NH4-N Remaining After 2 Weeks Incubation,[12]; 0.25 ppm,33%
same,% NH4-N Remaining After 2 Weeks Incubation,[12]; 1 ppm,69%
same,% NH4-N Remaining After 2 Weeks Incubation,[12]; 4 ppm,88%
same,plant injury at 500 ppm,soybean [13],0%
same,plant injury at 500 ppm,cotton [14],0%
same,pest or weed control at 500 ppm,barnyardgrass [15],0%
same,pest or weed control at 500 ppm,yellow nutsedge [16],40%
same,pest or weed control at 500 ppm,yellow foxtail [17],0%
CC(=O)N(c1c(F)cccc1F)S(=O)(=O)c1nc2nc(C)ccn2n1 [Compound 275],plant injury at 280.212 g/ha,cotton [18],100%
same,plant injury at 280.212 g/ha,sugar beet [19],100%
same,pest or weed control at 280.212 g/ha,yellow foxtail [20],100%
same,pest or weed control at 280.212 g/ha,velvetleaf [21],100%
same,pest or weed control at 280.212 g/ha,annual morning glory [22],90%
same,plant injury at 280.212 g/ha,corn [23],80%
same,pest or weed control at 280.212 g/ha,jimsonweed [24],100%
same,plant injury at 280.212 g/ha,rape [25],100%
same,pest or weed control at 280.212 g/ha,johnson grass [26],100%
same,pest or weed control at 280.212 g/ha,yellow nutsedge [27],100%
same,pest or weed control at 280.212 g/ha,barnyardgrass [28],100%
same,concentration required to produce 100% control (gametocidal activity),corn (First In),400 ppm
same,plant injury at 280.212 g/ha,sorghum [29],100%
same,plant injury at 280.212 g/ha,rice [30],90%
same,plant injury at 280.212 g/ha,wheat [31],100%
same,plant injury at 280.212 g/ha,soybean [32],20%
CCCCC(=O)N(c1c(F)cccc1F)S(=O)(=O)c1nc2nc(C)ccn2n1 [Compound 279],plant injury at 280.212 g/ha,cotton [18],90%
same,plant injury at 280.212 g/ha,sugar beet [19],100%
same,pest or weed control at 280.212 g/ha,yellow foxtail [20],100%
same,pest or weed control at 280.212 g/ha,velvetleaf [21],100%
same,pest or weed control at 280.212 g/ha,annual morning glory [22],90%
same,plant injury at 280.212 g/ha,corn [23],80%
same,pest or weed control at 280.212 g/ha,jimsonweed [24],100%
same,plant injury at 280.212 g/ha,rape [25],100%
same,pest or weed control at 280.212 g/ha,johnson grass [26],100%
same,pest or weed control at 280.212 g/ha,yellow nutsedge [27],100%
same,pest or weed control at 280.212 g/ha,barnyardgrass [28],100%
same,concentration required to produce 100% control (gametocidal activity),corn (First In),50 ppm
same,plant injury at 280.212 g/ha,sorghum [29],100%
same,plant injury at 280.212 g/ha,rice [30],100%
same,plant injury at 280.212 g/ha,wheat [31],90%
same,plant injury at 280.212 g/ha,soybean [32],20%
